In ChEMBL document CHEMBL3244327, “Benzomorphans. Structure of a position isomer” (J Med Chem, 1978):
Calls of active or inactive are those of the source. The rule behind the calls is not given here.

Tests used:
Rattus norvegicus [1] = experiment: Narcotic antagonist activity in sc dosed rat assessed as dose required for 50% antagonist activity co-treated with meperidine; format: functional
Mus musculus = experiment: Analgesic activity in sc dosed mouse assessed as inhibition of acetylcholine bromide-induced writhing after 2 mins; format: functional
Rattus norvegicus [2] = experiment: Narcotic antagonist activity in rat assessed as dose required for 50% antagonist activity at 80 mg/kg, sc co-treated with meperidine; format: functional, organism-based; parameters: dose 80 mg/kg
Rattus norvegicus [3] = experiment: Toxicity in rat at 80 mg/kg, sc; format: organism-based; parameters: dose 80 mg/kg, route subcutaneous; conditions: in vivo
Rattus norvegicus [4] = experiment: Narcotic antagonist activity in rat assessed as dose required for 50% antagonist activity at 10 mg/kg, sc co-treated with meperidine; format: functional, organism-based; parameters: dose 10 mg/kg

Row | SMILES | ED50 (Mus musculus) [mg/kg] | AD50 (Rattus norvegicus [1]) [mg/kg] | also measured
1 | CN1CC[C@]23c4c5ccc(O)c4O[C@H]2[C@@H](O)C=C[C@H]3[C@H]1C5 [MORPHINE] | 0.47 |  | Activity (Rattus norvegicus [1]): inactive
2 | C[C@H]1C2Cc3ccc(O)cc3[C@@]1(C)CCN2Cc1ccccc1 | 23 | 1.3 | 
3 | CC[C@H]1C2Cc3ccc(O)cc3[C@@]1(C)CCN2C | 1.1 |  | Activity (Rattus norvegicus [2]): inactive
4 | C[C@H]1C2Cc3ccc(O)cc3[C@@]1(C)CCN2C | 0.54 |  | 
5 | CC(C)=CCN1C[C@@H](C)[C@]2(C)C[C@@H]1Cc1ccc(O)cc12 | 29 | 2.8 | 
6 | CC1CN(C)C2Cc3ccc(O)cc3[C@@]1(C)C2 (some centres undefined) | 2.9 |  | 
7 | CC[C@@]12CC(Cc3ccc(O)cc31)N(CC=C(C)C)CC2C (some centres undefined) |  | >40 | 
8 | CC(C)=CCN1CC[C@@]2(C)c3cc(O)ccc3C[C@@H]1[C@@H]2C (relative stereo) | 2.2 | 3.9 | 
9 | CC[C@@]12CCN(CC=C(C)C)C(Cc3ccc(O)cc31)[C@@H]2C | 2.1 | 10.9 | 
10 | C=CCN1CC(C)[C@]2(CC)CC1Cc1ccc(O)cc12 (some centres undefined) | 10 | 0.037 | 
11 | C=CCN1CC[C@]2(CC)c3cc(O)ccc3CC1[C@@H]2C | 0.23 | 0.064 | 
12 | CCC1CN(C)C2Cc3ccc(O)cc3[C@@]1(C)C2 (some centres undefined) | 20 | 9 | 
13 | CC1CN(Cc2ccccc2)C2Cc3ccc(O)cc3[C@@]1(C)C2 (some centres undefined) | 8.5 |  | Activity (Rattus norvegicus [3]): Toxic; Activity (Rattus norvegicus [4]): inactive
